Test system: Brugia pahangi adult females
Experiment: Transmission electron microscopy of B. pahangi adult females from treated gerbils
Format: in vivo
Details: females from gerbils treated with 1 mg/kg
Description: B. pahangi adult females recovered from gerbils treated with 1 mg/kg THP and analog 06 were prepared as above except worms were cut into approximately 5 mm long pieces taken from the center of the worm. Pieces were washed for one hour in 0.1 M sodium cacodylate followed by post-fixation in 1% osmium tetroxide for 1 h and again washed in the same buffer for another hour. Sample pieces were dehydrated using an increasing concentration of ethanol and resin (Durcupan, by Fluka) and transitioned using propylene oxide. Samples were left overnight in pure resin at 4 °C. Samples pieces were embedded using Beem capsules (Electron Microscopy Sciences) and cured at 60 °C overnight. All reagents were purchased from Electron Microscopy Sciences.
Blocks were trimmed and sectioned using a diamond knife on a Sorvall MT-6000 ultramicrotome, collected on formvar coated 1 mm slot grids and contrasted using uranyl acetate and lead citrate. Grids were imaged on a Philips CM100 transmission electron microscope at 80 kV and images were collected using a Gatan Orius imaging system.

Cc1ccc2c(ccc(/C=C/c3c(C)nn(-c4ccccc4)c3C)[n+]2C)c1.[I-] [Analog 06, 2-[(E)-2-(3,5-dimethyl-1-phenyl-1H-pyrazol-4-yl)ethenyl]-1,6-dimethylquinolin-1-ium iodide] was tested, and the “Ultrastructure of gonads / developing microfilariae of female worms (TEM)” value (1 mg/kg) was “more severe effect on the gonads” and the “Ultrastructure of gonads / developing microfilariae of female worms (TEM)” value (listed as 06, 1 mg/kg) was “abnormal ultrastructural phenotypes”.

Reference: PMC8880385 (Pharmaceuticals, 2022)
